The record followed here is patent publication US12545668B2, “Cyclic amine derivative as agent for promoting advillin function, and novel cyclic amine derivative and pharmaceutical use thereof” (Toray Industries, Inc., priority 2018, dated 2026).

For assay [1], the system named is F11 cells (rat dorsal root ganglion neuron cell line). In words: Effect of decreasing intracellular actin filaments in F11 cells with oxaliplatin-induced axonal injury (phalloidin staining). Format: cell-based. Conditions: F-11 rat/mouse fusion cell line, F11, 120 h, compound 10 μM with oxaliplatin 15 μM, 5 days; compared to oxaliplatin alone treated group; average of five samples; read-out: Decreasing Rate of Intracellular Actin Filament (%). From the text:
The effect of the cyclic amine derivative (I) or a pharmacologically acceptable salt thereof on the amount of intracellular actin filaments in F11 cells (rat dorsal root ganglion neuron cell line) was examined.
As test compounds, the compounds of Examples 1, 2, 3, 4, 5, 6, 7, 8, and 9 were used.
As compounds of comparative examples, 1-(4-(dimethylamino)piperidin-1-yl)-3-(1-ethyl-1H-imidazol-2-yl)-3-hydroxypropan-1-one (hereinafter, the compound of Comparative Example 1), 1-(4-(dimethylamino)piperidin-1-yl)-3-hydroxy-3-(1-(2,2,2-trifluoroethyl)-1H-imidazol-2-yl)propan-1-one (hereinafter, the compound of Comparative Example 2), 1-((R)-3-(dimethylamino)pyrrolidin-1-yl)-3-hydroxy-3-(1-methyl-1H-imidazol-2-yl)propan-1-one (hereinafter, the compound of Comparative Example 3), and 1-((R)-[…]-3-hydroxy-3-(1-methyl-1H-imidazol-2-yl)propan-1-one (hereinafter, the compound of Comparative Example 4) shown in Table 4 were used. The compounds of Comparative Examples 1, 2, 3, and 4 were synthesized in accordance with methods described in International Publication No. WO2016/136944.
For peeling the F11 cells off from a culture flask, 0.25% Trypsin/EDTA (manufactured by Thermo Fisher Scientific K.K.) was added to the cells, followed by incubation at room temperature for several minutes. Thereafter, 10% fetal bovine serum-containing DMEM medium (manufactured by Thermo Fisher Scientific K.K.) was added thereto for suspension, and the resultant centrifuged at 1,500 rpm for 1 minute. After removing the resultant centrifugal supernatant, 0.5% fetal bovine serum-containing DMEM medium was added thereto for suspending cells therein, and the resultant seeded in a poly-D-lysine-coated 96 well plate (manufactured by BD Biosciences) coated with laminin (2 μg/cm^2, manufactured by Sigma Aldrich) to be cultured at 37° C. under an environment of 5% CO2. Two hours after seeding the cells, N,N-dibutyladenosine 3′,5′-phosphate (final concentration 1 mM, manufactured by Sigma Aldrich) and recombinant rat GDNF (final concentration 50 ng/mL, manufactured by PeproTech) were added thereto to culture the cells at 37° C. under an environment of 5% CO2 for 7 days for differentiation.
Seven days after starting the culture, the medium was exchanged with 0.5% fetal bovine serum-containing DMEM medium containing oxaliplatin (final concentration 15 μM), and the resultant cultured for 5 days to induce axonal injury. Each of the compounds of Examples and Comparative Examples was caused to be contained in the medium (final concentration 10 μM) for treatment in the same manner as oxaliplatin.
Five days after treatment with oxaliplatin and each of the compounds, the resultant cells were washed with PBS(−) three times, a 4% paraformaldehyde-phosphate buffer (manufactured by Wako Pure Chemical Industries Ltd.) was added thereto, and the resultant allowed to stand still at room temperature for 10 minutes to fix the cells. Acti-stain 670 phalloidin (manufactured by Cytoskeleton Inc.) was added thereto, and the resultant incubated at room temperature for 30 minutes to stain actin filaments. An image of the cells was acquired using IN Cell Analyzer 2200 (manufactured by GE Healthcare), and the image analyzed using IN Cell Investigator Developer Toolbox. The amount of intracellular actin filaments was indicated by the amount of fluorescence (density) of fluorescent-labeled phalloidin binding to the actin filaments.
In a group treated with oxaliplatin alone (hereinafter, the oxaliplatin alone treated group), the amount of intracellular actin filaments increased by 5% compared to that in a group not treated with oxaliplatin. […] A decreasing rate of intracellular actin filaments, caused by each compound compared to the amount of intracellular actin filaments of the oxaliplatin alone treated group was calculated. […]

A short description of assay [2]: Specific binding of 3H-labeled compound to membrane fraction prepared from rat brainstem. The note with it: 3H-labeled compound of Example 7, 37° C., 1 hour; relative to dorsal root ganglion. As to the method: A binding property of a ^3H-labeled cyclic amine derivative (I) to each of membrane fractions prepared from various tissues of a rat was evaluated, and thus, a tissue containing a molecular target of the cyclic amine derivative (I) was clarified.
As the cyclic amine derivative (I), the compound of Example 7 was used.
Male SD rats (manufactured by Charles River Laboratories Japan, Inc.) of 7 weeks old were used. Rats were anesthetized with isoflurane, and euthanized by exsanguination from the abdominal aorta using a syringe having an inner wall treated with a heparin sodium injection (manufactured by AY Pharmaceuticals Co., Ltd.). […]
A homogenate sample of each tissue thus collected was prepared, using a homogenizer, by adding a homogenize buffer (sucrose (1 M), Tris-HCl (0.5 M), and 1× protease inhibitor cocktail (manufactured by Sigma Aldrich), pH 7.6) to the collected tissue. […] The resultant supernatant was ultracentrifuged at 100,000×g at 4° C. for 60 minutes, and the thus obtained precipitate was suspended in Krebs-Ringer bicarbonate buffer (manufactured by Sigma Aldrich) to quantitatively determine the amount of protein using a BCA protein assay kit (manufactured by Thermo Fisher Scientific K.K.). […]

Regarding `CN(C)C1CCN(C(=O)C[C@H](O)c2nccn2C)CC1` [Example 7, (S)-1-(4-(dimethylamino)piperidin-1-yl)-3-hydroxy-3-(1-methyl-1H-imidazol-2-yl)propan-1-one], in assay [1], the inhibition at 10 µM was no less than 5%. The “specific binding to the membrane fraction prepared from the brainstem, as % of the specific binding to the dorsal root ganglion membrane fraction” value in assay [2] is on record as 4.2%.
